A value given as a limit tells only on which side of the number the result lay.

One series relates to VCAM-1. The series is described as follows: In Vitro VCAM-1 Assay (TNF-α stimulated HAEC or HPAEC, cell ELISA). The note with it: Homo sapiens, 16 h, TNF-α (1 ng/ml) stimulated HAEC or HPAEC, approximately 16 hours. The format is cell-based, human. An outline of the steps: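 Primary human aortic or pulmonary endothelial cells (below passage 9) stimulated with TNF-α (1 ng/ml) plus compound (four concentrations, ≤0.25% DMSO) for about 16 h. Surface VCAM-1 detected by cell ELISA (HRP/TMB, OD 450 nm). IC50 taken as the concentration giving 50% inhibition of the TNF-α-only response.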

A word on the melting point: it is the temperature, or range, at which the solid turns liquid. A word on the IC50: it is the concentration that inhibits the measured activity by half. The low end stands for higher potency, the high end for lower potency. Take `COc1cc(OC)c(-c2csc(C)n2)cc1/C=C/C(=O)c1ccc(C(=O)O)cc1` [Example 69, 4-{3E-[2,4-Dimethoxy-5-(2-methyl-thiazol-4-yl)-phenyl]-acryloyl}-benzoic acid]: the melting point was 201 to 202 °C (dec.). In addition, the IC50 in the series with VCAM-1 is under 5 µM.

Take `COc1cc(OC)c(-c2nc3ccccc3[nH]2)cc1/C=C/C(=O)c1ccc(C(=O)O)cc1.Cl` [Example 70, 4-{3E-[5-(1H-Benzoimidazol-2-yl)-2,4-dimethoxy-phenyl]-acryloyl}-benzoic acid]: the melting point was > 240 °C (dec.). In the series on VCAM-1, this compound displayed a concentration for half-maximal inhibition (IC50) of under 5 µM.

Turning to `COc1cc(OC)c(-c2cn[nH]c2)cc1/C=C/C(=O)c1ccc(C(=O)O)cc1` [Example 74, 4-{3E-[2,4-Dimethoxy-5-(1H-pyrazol-4-yl)-phenyl]-acryloyl}-benzoic acid], the melting point was over 250 °C. This compound also returned an IC50 with VCAM-1 of over 10 µM.

With `COc1cc(OC)c(-c2nn[nH]n2)cc1/C=C/C(=O)c1ccc(C(=O)O)cc1` [Example 75, 4-{3E-[2,4-Dimethoxy-5-(2H-tetrazol-5-yl)-phenyl]-acryloyl}-benzoic acid], the melting point is 218 °C (dec.). Besides, the IC50 in the series with VCAM-1 is over 10 µM.

`COc1cc(OC)c(-c2nc3cccnc3[nH]2)cc1/C=C/C(=O)c1ccc(C(=O)O)cc1` [Example 76, 4-{3E-[5-(3H-Imidazo[4,5-b]pyridin-2-yl)-2,4-dimethoxy-phenyl]-acryloyl}-benzoic acid] gave a melting point of 222 to 224 °C. Moreover, the 50% inhibitory concentration (IC50) with VCAM-1 is over 10 µM.

`COc1cc(OC)c(-c2cccs2)cc1/C=C/C(=O)c1ccc(-c2nn[nH]n2)cc1` [Example 78, 3E-(2,4-Dimethoxy-5-thiophen-2-yl-phenyl)-1-[4-(2H-tetrazol-5-yl)-phenyl]-propenone]: the melting point is 235 °C (dec.). Also, the 50% inhibitory concentration (IC50) with VCAM-1 is under 10 µM.

Take `COc1cc(OCCN2CCOCC2)c(/C=C/C(=O)c2ccc(S(N)(=O)=O)cc2)cc1-c1cccs1` [Example 81, 4-{3E-[4-Methoxy-2-(2-morpholin-4-yl-ethoxy)-5-thiophen-2-yl-phenyl]-acryloyl}-benzenesulfonamide]: the melting point lay within 186 to 188 °C. This compound also registered a concentration for half-maximal inhibition (IC50) with VCAM-1 of under 1 µM.

Take `COc1cc(OC)c(-c2cc3ccccc3n2C(=O)OC(C)(C)C)cc1/C=C/C(=O)c1ccc(S(N)(=O)=O)cc1` [Example 83, 2-{2,4-Dimethoxy-5-[3-oxo-3-(4-aminosulfonyl-phenyl)-E-propenyl]-phenyl}-indole-1-carboxylic acid tert-butyl ester]: the melting point is 120 to 122 °C. The compound further returned an IC50 in the series on VCAM-1 of under 1 µM.

The compound `COc1cc(OC)c(-c2cc3ccccc3[nH]2)cc1/C=C/C(=O)c1ccc(S(N)(=O)=O)cc1` [Example 84, 4-{3E-[5-(1H-Indol-2-yl)-2,4-dimethoxy-phenyl]-acryloyl}-benzenesulfonamide] yielded a melting point of 185 to 187 °C. The same compound showed a half-maximal inhibitory concentration (IC50) in the series with VCAM-1 of under 5 µM.

Consider `COc1cc(OCCCN2CCOCC2)c(/C=C/C(=O)c2ccc(S(N)(=O)=O)cc2)cc1-c1cccs1` [Example 85, 4-{3E-[4-Methoxy-2-(3-morpholin-4-yl-propoxy)-5-thiophen-2-yl-phenyl]-acryloyl}-benzenesulfonamide], for which the melting point is 193 to 196 °C. The compound further yielded an IC50 in the series on VCAM-1 of under 1 µM.

On to `COc1cc(OC)c(-c2cc3ccccc3s2)cc1/C=C/C(=O)c1ccc(S(=O)(=O)NC(=O)C(C)C)cc1` [Example 87, 4-[3E-(5-Benzo[b]thiophen-2-yl-2,4-dimethoxy-phenyl)-acryloyl]-N-isobutyryl-benzenesulfonamide], for which the melting point is > 240 °C (dec.). In the series with VCAM-1, this compound gave an IC50 of under 1 µM.

On to `COc1cc(OC)c(-c2cc3ccccc3s2)cc1/C=C/C(=O)c1ccc(C(=O)NCC(F)(F)F)cc1` [Example 91, 4-[3E-(5-Benzo[b]thiophen-2-yl-2,4-dimethoxy-phenyl)-acryloyl]-N-(2,2,2-trifluoro-ethyl)-benzamide], for which the melting point lay within 215 to 217 °C. The same compound came in with a half-maximal inhibitory concentration (IC50) in the series on VCAM-1 of under 5 µM.

`COc1cc(OCCN2CCOCC2)c(/C=C/C(=O)c2ccc(C(N)=O)cc2)cc1-c1cccs1` [Example 92, 4-{3E-[4-Methoxy-2-(2-morpholin-4-yl-ethoxy)-5-thiophen-2-yl-phenyl]-acryloyl}-benzamide] had a melting point of 183 to 184 °C. The half-inhibitory concentration (IC50) in the series on VCAM-1 was under 1 µM.

The compound `COc1cc(OC)c(-c2cc3ccccc3s2)cc1/C=C/C(=O)c1ccc(C(N)=O)cc1` [Example 93, 4-[3E-(5-Benzo[b]thiophen-2-yl-2,4-dimethoxy-phenyl)-acryloyl]-benzamide] came in with a melting point of 240 to 241 °C. In the series on VCAM-1, this compound showed a 50% inhibitory concentration (IC50) of under 1 µM.

`COc1cc(OCCCN2CCOCC2)c(/C=C/C(=O)c2ccc(C(N)=O)cc2)cc1-c1cccs1` [Example 94, 4-{3E-[4-Methoxy-2-(3-morpholin4-yl-propoxy)-5-thiophen-2-yl-phenyl]-acryloyl}-benzamide]: the melting point lay within 81 to 83 °C. Besides, in the series on VCAM-1, the IC50 was under 1 µM.

Regarding `COc1cc(OC)c(-c2cc3ccccc3s2)cc1/C=C/C(=O)c1ccc(C(=O)NC(C)=O)cc1` [Example 95, N-Acetyl-4-[3E-(5-benzo[b]thiophen-2-yl-2,4-dimethoxy-phenyl)-acryloyl]-benzamide], the melting point was in the range of 228 to 229 °C. This compound also returned an IC50 in the series on VCAM-1 of under 1 µM.

Compound `COc1cc(OC)c(-c2cc3ccccc3s2)cc1/C=C/C(=O)c1ccc(C(=O)NC(=O)C(C)C)cc1` [Example 96, 4-[3E-(5-Benzo[b]thiophen-2-yl-2,4-dimethoxy-phenyl)-acryloyl]-N-isobutyryl-benzamide] displayed a melting point of 208 to 209 °C. Further, the IC50 in the series on VCAM-1 was under 5 µM.

`COc1cc(OC(C)(C)C(=O)O)c(-c2cccs2)cc1/C=C/C(=O)c1ccc(NS(C)(=O)=O)cc1` [Example 100, 2-{4-[3-(4-Methanesulfonylamino-phenyl)-3-oxo-E-propenyl]-5-methoxy-2-thiophen-2-yl-phenoxy}-2-methyl-propionic acid] had a melting point of 181 to 183 °C. In the series on VCAM-1, the half-maximal inhibitory concentration (IC50) was over 10 µM.

`COc1cc(OC(C)(C)C(=O)O)c(-c2cccs2)cc1/C=C/C(=O)c1ccc(N(C)S(C)(=O)=O)cc1` [Example 101, 2-(4-{3-[4-(Methanesulfonyl-methyl-amino)-phenyl]-3-oxo-E-propenyl}-5-methoxy-2-thiophen-2-yl-phenoxy)-2-methyl-propionic acid] showed a melting point of 197 to 200 °C. In the series with VCAM-1, this compound showed an IC50 of over 10 µM.

With `COc1cc(OC)c(-c2cc3ccccc3s2)cc1/C=C/C(=O)c1ccc(Nc2c(N)c(=O)c2=O)cc1` [Example 102, 3-Amino-4-{4-[3E-(5-benzo[b]thiophen-2-yl-2,4-dimethoxy-phenyl)-acryloyl]-phenylamino}-cyclobut-3-ene-1,2-dione], the melting point is over 260 °C. This compound also registered an IC50 in the series with VCAM-1 of over 10 µM.

In the case of `COc1cc(OCC(CO)CO)c(-c2cccs2)cc1/C=C/C(=O)c1ccc(S(N)(=O)=O)cc1` [Example 106, 4-{3E-[4-(3-Hydroxy-2-hydroxymethyl-propoxy)-2-methoxy-5-thiophen-2-yl-phenyl]-acryloyl}-benzenesulfonamide], the melting point was in the range of 191 to 192 °C. Also, in the series with VCAM-1, the IC50 is under 10 µM.

Values taken from patent US7094801B2, “Chalcone derivatives and their use to treat diseases” (Atherogenics, Inc., priority 2001, dated 2006).
